Assay results from patent US20250282768A1 (Janssen Pharmaceutica NV, priority 2022, published 2025).

Test system: p-IKKa levels in L363 (NIK translocated multiple myeloma) cells
Assay: Assay 2: Effect of compounds on p-IKKa levels in L363 (NIK translocated multiple myeloma) cells
Type: cell-based
Conditions: Homo sapiens, L-363, 6 h, read-out: Assay 2 IC50 (nM), p-IKKa (Ser 176/180) in BAFF stimulated L363 cells with MG132, 6 h; average if tested more than once
In short: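 Read-out is p-IKKa Ser176/180 by AlphaLISA SureFire in lysates. Cells were BAFF-primed (250 ng/ml) overnight or left unstimulated, then exposed 6 h at 37 °C to compound with MG132 (10 μM), 0.3% DMSO. IC50 from sigmoidal curve fit, normalized between stimulated and unstimulated controls.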

| Compound | IC50 [nM] |
| --- | --- |
| Cc1cn(C2CC(O)C2)nc1Nc1nccc(-c2cccc(-c3cc([C@]4(O)CCN(C)C4=O)on3)n2)n1 (stereo partly drawn) [Example 50, (R)-3-Hydroxy-3-(3-(6-(2-((1-(3-hydroxycyclobutyl)-4-methyl-1H-pyrazol-3-yl)amino)pyrimidin-4-yl)pyridin-2-yl)isoxazol-5-yl)-1-methylpyrrolidin-2-one] | < 50 |
| CN1CC[C@@](O)(c2cc(-c3cccc(-c4nc(Nc5ccn(C)n5)ncc4F)c3)no2)C1=O [Example 425, (R)-3-(3-(3-(5-Fluoro-2-((1-methyl-1H-pyrazol-3-yl)amino)pyrimidin-4-yl)phenyl)isoxazol-5-yl)-3-hydroxy-1-methylpyrrolidin-2-one] | > 500 |
| CN1CC[C@@](O)(c2cc(-c3cccc(-c4ccnc(Nc5ccnnc5)n4)n3)no2)C1=O [Example 281, (R)-3-Hydroxy-1-methyl-3-(3-(6-(2-(pyridazin-4-ylamino)pyrimidin-4-yl)pyridin-2-yl)isoxazol-5-yl)pyrrolidin-2-one] | > 500 |
| COc1ncc(Nc2nccc(-c3cccc(-c4cc([C@]5(O)CCN(C)C5=O)on4)n3)n2)cn1 [Example 112, (R)-3-Hydroxy-3-(3-(6-(2-((2-methoxypyrimidin-5-yl)amino)pyrimidin-4-yl)pyridin-2-yl)isoxazol-5-yl)-1-methylpyrrolidin-2-one] | 50 to 500 |
| CN1CC[C@@](O)(c2cc(-c3cccc(-c4ccnc(N5CCn6nc(N)cc6C5)n4)c3)no2)C1=O [Example 417, (R)-3-(3-(3-(2-(2-Amino-6,7-dihydropyrazolo[1,5-a]pyrazin-5(4H)-yl)pyrimidin-4-yl)phenyl)isoxazol-5-yl)-3-hydroxy-1-methylpyrrolidin-2-one] | > 500 |
| CN1CC[C@@](O)(c2cc(-c3cccc(-c4ccnc(Nc5cnn6ncccc56)n4)n3)no2)C1=O [Example 216, (R)-3-Hydroxy-1-methyl-3-(3-(6-(2-(pyrazolo[1,5-b]pyridazin-3-ylamino)pyrimidin-4-yl)pyridin-2-yl)isoxazol-5-yl)pyrrolidin-2-one] | < 50 |
| COc1nccc(Nc2nccc(-c3cccc(-c4cc([C@]5(O)CCN(C)C5=O)on4)n3)n2)n1 [Example 113, (R)-3-Hydroxy-3-(3-(6-(2-((2-methoxypyrimidin-4-yl)amino)pyrimidin-4-yl)pyridin-2-yl)isoxazol-5-yl)-1-methylpyrrolidin-2-one] | < 50 |
| [2H]c1cc(-c2cccc(-c3cc([C@]4(O)CCN(C)C4=O)on3)n2)nc(Nc2ccn(CC)n2)n1 [Example 210, (R)-3-(3-(6-(2-((1-Ethyl-1H-pyrazol-3-yl)amino)pyrimidin-4-yl-6-d)pyridin-2-yl)isoxazol-5-yl)-3-hydroxy-1-methylpyrrolidin-2-one] | < 50 |
| CN1CC[C@@](O)(c2cc(-c3cccc(-c4ccnc(NC[C@@H]5CCO5)n4)n3)no2)C1=O [Example 360, (R)-3-Hydroxy-1-methyl-3-(3-(6-(2-((((S)-oxetan-2-yl)methyl)amino)pyrimidin-4-yl)pyridin-2-yl)isoxazol-5-yl)pyrrolidin-2-one] | > 500 |
| CN1C(=O)[C@](O)(c2cc(-c3cccc(-c4ccnc(Nc5cnn(C)c5)n4)n3)no2)C[C@H]1C(F)(F)F [Example 6, (3R,5S)-3-Hydroxy-1-methyl-3-(3-(6-(2-((1-methyl-1H-pyrazol-4-yl)amino)pyrimidin-4-yl)pyridin-2-yl)isoxazol-5-yl)-5-(trifluoromethyl)pyrrolidin-2-one] | 50 to 500 |
| CN1CC[C@@](O)(c2cc(-c3cccc(-c4ccnc(Nc5cn(CCF)cn5)n4)n3)no2)C1=O [Example 399, (R)-3-(3-(6-(2-((1-(2-Fluoroethyl)-1H-imidazol-4-yl)amino)pyrimidin-4-yl)pyridin-2-yl)isoxazol-5-yl)-3-hydroxy-1-methylpyrrolidin-2-one] | < 50 |
| CN1CC[C@@](O)(c2cc(-c3cccc(-c4ccnc(Nc5cc(Cl)n(C)n5)n4)n3)no2)C1=O [Example 279, (R)-3-(3-(6-(2-((5-Chloro-1-methyl-1H-pyrazol-3-yl)amino)pyrimidin-4-yl)pyridin-2-yl)isoxazol-5-yl)-3-hydroxy-1-methylpyrrolidin-2-one] | 50 to 500 |
